{"source": "patent US20240368149A1", "about": "“ANALOGS OF XANOMELINE” (Terran Biosciences Inc., priority 2023, published 2024)", "key": {"[1]": {"assay": "Rat PK: plasma prodrug concentration after intramuscular (IM) dosing of xanomeline prodrugs at 5 mg/kg (Example A-4)", "assay_type": "in vivo, male Sprague-Dawley (SD) rats", "conditions": "male, Sprague-Dawley, IM 5 mg/kg of xanomeline; for Cmax / AUC(0-inf) / AUC(0-t): im; for AUC(0-inf): read-out: Prodrug AUCINF_obs; for AUC(0-t): read-out: Prodrug AUClast; for concentration at 0.5 h: 0.500 h", "procedure": "(§1) • Step 1: A stock solution of the compound(s) were prepared to 1 mg/ml in DMSO • Step 2: A 10,000 ng/mL matched matrix standard was prepared using the stock solution(s) • Step 3: Calibration standards in matched matrix were prepared between 10,000 ng/ml and 0.5 ng/mL using serial dilution • Step 4: QC samples were prepared in matched matrix at 4000, 800, 400, 40 and 10 ng/mL\n(§2) • Step 1: Add 10 μL of the standards, QCs and samples to a 96-well plate (extraction plate) • Step 2: To each standard, QC and test sample, add 100 μL of ISZ • Step 3: Sonicate for 2 min then mix the plate for approximately 2 min at 1200 rpm on a plate shaker • Step 4: Centrifuge the plate at 3000 rpm for 5 min • Step 5: Add 50 μL 0.1% formic acid in UP H2O to wells of a new 96-well plate • Step 6: Transfer 50 μL extracted sample to relevant position in second 96-well plate • Step 7: Mix at 1200 rpm for 2 min • Step 8: Heat seal and analyse on the LC-MS/MS system • Instrument: Xevo TQ-D with CTC Autosampler\n(§3) Samples were sent for method optimization and measurement of prodrug via unique calibration lines and following acceptance QC's. Dose formulation concentrations were also measured, and PK parameters were determined (Cmax (ng/mL), Tmax (hr), Cl (ml/min/kg), Vdss (L/kg), t½ (hr), AUC0-t (ng/mL*hr), AUC0-inf (ng/mL*hr), MRT (hr), Bioavailability (% F) where warranted) using WinNon Lin software. Data (including bioanalytical results and assay performance) were reported in a tabulated format and QC'd.\nFormulation for IM administration: All compounds were formulated as solutions or fine suspensions in saline at 12.5 mg API/mL. This provided doses of 5 mg/kg (equivalent of xanomeline) when given to a 250 g rat in a 100 μL dosing volume.\nThe pharmacokinetic properties of the synthesized xanomeline prodrugs after intramuscular administration in a rat model were assessed. The concentration of prodrug was measured in each rat at various sampling timepoints after intramuscular administration of the synthesized xanomeline prodrugs to rats.\nDose formulations were made at equivalent concentrations of active compound (xanomeline) adjusted for molecular weight of the compounds. The synthesized xanomeline prodrugs were dosed at 5 mg/kg intramuscular (IM) nominal dose. Nominal doses were used in PK parameter determinations."}, "[2]": {"assay": "Rat PK: plasma prodrug concentration after intravenous (IV) dosing of xanomeline prodrugs at 1 mg/kg (Example A-6)", "assay_type": "in vivo, male Sprague-Dawley (SD) rats", "conditions": "male, Sprague-Dawley, IV 1 mg/kg of xanomeline; for concentration at 0.25 h / concentration at 0.5 h / concentration at 0.75 h / Cmax / AUC(0-inf) / AUC(0-t): iv, 1 mg/kg; for concentration at 0.25 h: 0.250 h; for concentration at 0.25 h / concentration at 0.5 h / concentration at 0.75 h: read-out: Prodrug Plasma Concentrations Following Intravenous Dosing; for concentration at 0.5 h: 0.500 h; for concentration at 0.75 h: 0.750 h; for AUC(0-inf): read-out: Prodrug AUCINF_obs; for AUC(0-t): read-out: Prodrug AUClast", "procedure": "as §1, §2, §3\nCompound was dissolved in DMSO:HPCD (20% w/v in water) [10:90] 0.5 mg API/mL to provide doses of 1 mg/kg when administered IV in a 2 mL/kg dosing volume.\nThe pharmacokinetic properties of the synthesized xanomeline prodrugs after intravenous administration in a rat model were assessed. The concentration of prodrug was measured in each rat at various sampling timepoints after intravenous administration of the synthesized xanomeline prodrugs to rats.\nDose formulations were made at equivalent concentrations of active compound (xanomeline) adjusted for molecular weight of the compounds. The synthesized xanomeline prodrugs were dosed at 1 mg/kg intravenous (IV) nominal dose. Nominal doses were used in PK parameter determinations."}, "[3]": {"conditions": "5 mg/kg, analyte prodrug, individual animals"}, "[4]": {"conditions": "intramuscular, 5 mg/kg, Mean, read-out: Prodrug Plasma Concentrations Following Intramuscular Dosing"}, "[5]": {"conditions": "intramuscular, 5 mg/kg, individual animals, read-out: Prodrug Plasma Concentrations Following Intramuscular Dosing"}, "[6]": {"conditions": "analyte prodrug, individual animals"}}, "note": "Read-outs that look alike come from different tables or passages of the source.", "data": [{"smiles": "CCCCCCOc1nsnc1C1=CCC[N+](C)(C(C)OC(=O)C(C)(C)C)C1", "note": "(stereo not drawn) [Compound 19]", "values": [{"measurement": "Tmax", "setting": "[1]; analyte prodrug, Mean", "result": 30, "unit": "min"}, {"measurement": "Cmax", "setting": "[1]; 5 mg/kg, analyte prodrug, Mean", "result": 218, "unit": "ng/mL"}, {"measurement": "AUC(0-inf)", "setting": "[1]; 5 mg/kg, analyte prodrug, Mean", "result": 697, "unit": "ng·h/mL"}, {"measurement": "AUC(0-t)", "setting": "[1]; 5 mg/kg, analyte prodrug, Mean", "result": 618, "unit": "ng·h/mL"}, {"measurement": "Cmax", "setting": "[1]; [3]", "result": 284, "unit": "ng/mL"}, {"measurement": "AUC(0-inf)", "setting": "[1]; [3]", "result": 891, "unit": "ng·h/mL"}, {"measurement": "AUC(0-t)", "setting": "[1]; [3]", "result": 667, "unit": "ng·h/mL"}, {"measurement": "concentration at 0.5 h", "setting": "[1]; [4]", "result": 218, "unit": "ng/mL"}, {"measurement": "concentration at 0.5 h", "setting": "[1]; [5]", "result": 284, "unit": "ng/mL"}, {"measurement": "concentration at 1 h", "setting": "[1]; [4]", "result": 128, "unit": "ng/mL"}, {"measurement": "concentration at 1 h", "setting": "[1]; [5]", "result": 115, "unit": "ng/mL"}, {"measurement": "concentration at 2 h", "setting": "[1]; [4]", "result": 83, "unit": "ng/mL"}, {"measurement": "concentration at 2 h", "setting": "[1]; [5]", "result": 80.2, "unit": "ng/mL"}, {"measurement": "concentration at 4 h", "setting": "[1]; [4]", "result": 35.9, "unit": "ng/mL"}, {"measurement": "concentration at 4 h", "setting": "[1]; [5]", "result": 38.6, "unit": "ng/mL"}, {"measurement": "concentration at 8 h", "setting": "[1]; intramuscular, 5 mg/kg, 8.00 h, Mean, read-out: Prodrug Plasma Concentrations Following Intramuscular Dosing", "result": 13.7, "unit": "ng/mL"}, {"measurement": "concentration at 24 h", "setting": "[1]; intramuscular, 5 mg/kg, 24.0 h, Mean, read-out: Prodrug Plasma Concentrations Following Intramuscular Dosing", "result": 1.59, "unit": "ng/mL"}, {"measurement": "concentration at 31 h", "setting": "[1]; [4]", "result": 1.04, "unit": "ng/mL"}, {"measurement": "concentration at 31 h", "setting": "[1]; [5]", "result": 1.01, "unit": "ng/mL"}, {"measurement": "concentration at 48 h", "setting": "[1]; [4]", "result": 0.666, "unit": "ng/mL"}, {"measurement": "concentration at 48 h", "setting": "[1]; [5]", "result": 0.775, "unit": "ng/mL"}, {"measurement": "concentration at 96 h", "setting": "[1]; [4]", "result": 0.255, "unit": "ng/mL"}, {"measurement": "concentration at 96 h", "setting": "[1]; [5]", "result": 0.764, "unit": "ng/mL"}, {"measurement": "Tmax", "setting": "[2]; [6]", "result": 15, "unit": "min"}, {"measurement": "concentration at 0.25 h", "setting": "[2]; Mean", "result": 27.2, "unit": "ng/mL"}, {"measurement": "concentration at 0.25 h", "setting": "[2]; individual animals", "result": 35.4, "unit": "ng/mL"}, {"measurement": "concentration at 0.5 h", "setting": "[2]; Mean", "result": 11.8, "unit": "ng/mL"}, {"measurement": "concentration at 0.5 h", "setting": "[2]; individual animals", "result": 15.2, "unit": "ng/mL"}, {"measurement": "concentration at 0.75 h", "setting": "[2]; Mean", "result": 7.1, "unit": "ng/mL"}, {"measurement": "concentration at 0.75 h", "setting": "[2]; individual animals", "result": 8.62, "unit": "ng/mL"}, {"measurement": "Cmax", "setting": "[2]; analyte prodrug, Mean", "result": 27.2, "unit": "ng/mL"}, {"measurement": "AUC(0-inf)", "setting": "[2]; analyte prodrug, Mean", "result": 22.9, "unit": "ng·h/mL"}, {"measurement": "AUC(0-t)", "setting": "[2]; analyte prodrug, Mean", "result": 17.8, "unit": "ng·h/mL"}, {"measurement": "Cmax", "setting": "[2]; [6]", "result": 35.4, "unit": "ng/mL"}, {"measurement": "AUC(0-inf)", "setting": "[2]; [6]", "result": 27.1, "unit": "ng·h/mL"}, {"measurement": "AUC(0-t)", "setting": "[2]; [6]", "result": 24, "unit": "ng·h/mL"}]}]}
